One data set deals with Alcohol metabolism. The data set is described as follows: Alcohol metabolism test: ethanol content in venous blood after composition and ethanol feeding. As to conditions: for Percentage decrease compared to comparative group: decrease of venous blood ethanol content versus physiological saline group (75.0 mg/100 mL); for Ethanol content: venous blood 1 hour after 2 mL of 5% edible ethanol, 2 mL composition solution (4.5 g in 15 mL physiological saline) fed 1 hour before ethanol, 7 animals per group, GC-FID. The data set is classed as in vivo, mice. The method, then:
The test was divided into test groups and comparative groups. Each group included 7 healthy animals (e.g., mice). The healthy animals were fed in the laboratory for 10 days to adapt to the test environment, and then fasting was maintained 12 hours before the start of the test.
4.5 g of the compositions obtained in preparation examples 10-31 and comparative examples 1-8 were respectively dissolved in 15 mL of physiological saline to prepare composition solutions. The animals in the test groups were fed with 2 mL of the composition solution respectively, and the animals in the comparative group were fed with the same dose of normal saline. 1 hour later, the animals in the test groups and the comparative groups were fed with 2 mL of 5% edible ethanol, respectively. 1 hour later, the venous blood of the animals was collected. The ethanol content in the venous blood was detected by a gas chromatography-hydrogen flame ionization detector.

The nature of data set [1]: Dissolution of calcium glycerate forms in water at 37±0.2° C. (FIG. 9). As to conditions: comparison between forms. Type of data set: physicochemical.

Turning to `O=C(O)[C@H](O)CO` [compound 1, D-glyceric acid], in the data set on Alcohol metabolism, the “Percentage decrease compared to comparative group” value was 14.8% and the Ethanol content was 63.9 mg/100 mL.

`O=C([O][Ca][O]C(=O)[C@H](O)CO)[C@H](O)CO` [crystalline Form II, calcium D-glycerate]: the dissolution rate entry in data set [1] was “faster than that of crystalline Form I”.

On to `O=C(O)[C@H](O)CO` [compound 5, D-glyceric acid], for which, in the data set with Alcohol metabolism, the “Percentage decrease compared to comparative group” value is on record as 15.2% and the Ethanol content was found to be 63.6 mg/100 mL.

The values are drawn from patent US20240270760A1, “GLYCERIC ACID, GLYCERATE, AND COMPOSITION THEREOF” (INNER MONGOLIA KINGDOMWAY PHARMACEUTICAL CO., LTD., priority 2023, published 2024).
